US20240132431A1, “METHOD FOR ALKYLATING ACIDIC FUNCTIONAL GROUP” (Chugai Seiyaku Kabushiki Kaisha, priority 2021, published 2024)

Molecular target: T1, Bcl-2 protein (Recombinant Human Bcl-2 Protein) (Homo sapiens, UniProt P10415)
T1 construct: purchased Novus NBP2-34889
Test: Binding evaluation of mixture library compounds to Bcl-2 using AS-MS (affinity selection mass spectrometry)
Conditions: for ASMS ratio (%) n = 1 / ASMS ratio (%) n = 2: ASMS Ratio(%)=(A−C)/B×100; for ASMS ratio (%) n = 1: replicate n = 1; for ASMS ratio (%) n = 2: replicate n = 2
Procedure, shortened: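 Bcl-2 binding is scored from LC/MS signal retained with protein through gel-filtration spin columns, normalised to unfiltered and protein-free controls. Incubation: 20 μM protein, […] per compound, 1 h, 23° C.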

[1] = AS-MS, mixture of 1200 compounds, Bcl-2
[2] = AS-MS on the mixture of 1200 library compounds

T1 sequence (P10415 whole entry): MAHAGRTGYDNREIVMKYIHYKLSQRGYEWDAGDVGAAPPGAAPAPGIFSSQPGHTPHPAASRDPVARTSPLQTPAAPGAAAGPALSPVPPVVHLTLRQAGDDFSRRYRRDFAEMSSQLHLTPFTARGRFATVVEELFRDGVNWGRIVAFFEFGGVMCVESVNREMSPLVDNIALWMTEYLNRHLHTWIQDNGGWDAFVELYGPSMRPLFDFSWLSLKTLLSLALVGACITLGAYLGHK

ASMS ratio (%) (n = 1)	ASMS ratio (%) (n = 2)	ASMS ratio (%) n = 1 [1] [%]	ASMS ratio (%) n = 2 [1] [%]	Compound	further results
		0.0	−9.1	CCOc1cncc(C#Cc2cncc(C(=O)N3CCN(c4ccc(C(=O)NCC56CC7CC(CC(C7)C5)C6)cc4)CC3)c2)c1 [B1A032-01, N-(1-Adamantylmethyl)-4-[4-[5-[2-(5-ethoxypyridin-3-yl)ethynyl]pyridine-3-carbonyl]piperazin-1-yl]benzamide]	
		0.0	0.0	CCOc1cncc(-c2ccc(C(=O)N3CCN(c4ccc(C(=O)NCC(F)(F)F)cc4)CC3)cc2F)c1 [B1K028-01, 4-[4-[4-(5-Ethoxypyridin-3-yl)-3-fluorobenzoyl]piperazin-1-yl]-N-(2,2,2-trifluoroethyl)benzamide]	
0.0	0.0			CCOc1cncc(C#Cc2cc(C(=O)N3CCN(c4ccc(C(=O)NS(=O)(=O)CCC(F)(F)F)cc4)CC3)cc(C(F)(F)F)c2)c1 [B2N042-01, 4-[4-[3-[2-(5-Ethoxypyridin-3-yl)ethynyl]-5-(trifluoromethyl)benzoyl]piperazin-1-yl]-N-(3,3,3-trifluoropropylsulfonyl)benzamide]	
		−0.1	0.6	CCOc1cccc(-c2ccc(C(=O)N3CCN(c4ccc(C(=O)NCC(F)(F)F)nn4)CC3)cc2F)c1 [B1K005-01, 6-[4-[4-(3-Ethoxyphenyl)-3-fluorobenzoyl]piperazin-1-yl]-N-(2,2,2-trifluoroethyl)pyridazine-3-carboxamide]	
		17.6	−0.7	CCOc1cccc(-c2csc(C(=O)N3CCN(c4ccc(C(=O)NCC56CC7CC(CC(C7)C5)C6)nn4)CC3)c2)c1 [B1A001-01, N-(1-Adamantylmethyl)-6-[4-[4-(3-ethoxyphenyl)thiophene-2-carbonyl]piperazin-1-yl]pyridazine-3-carboxamide]	
		0.0	0.0	CCOc1cccc(C#Cc2cncc(C(=O)N3CCN(c4ccc(C(=O)NCC(F)(F)F)cc4)CC3)c2)c1 [B1K031-01, 4-[4-[5-[2-(3-Ethoxyphenyl)ethynyl]pyridine-3-carbonyl]piperazin-1-yl]-N-(2,2,2-trifluoroethyl)benzamide]	
		6.7	−7.8	CCOc1cccc(-c2ccc(C(=O)N3CCN(c4ccc(C(=O)NCC56CC7CC(CC(C7)C5)C6)cc4)CC3)cc2F)c1 [B1A027-01, N-(1-Adamantylmethyl)-4-[4-[4-(3-ethoxyphenyl)-3-fluorobenzoyl]piperazin-1-yl]benzamide]	
		7.0	−10.7	CCOc1cccc(-c2ccc(C(=O)N3CCN(c4ccc(C(=O)NCC56CC7CC(CC(C7)C5)C6)nn4)CC3)cc2F)c1 [B1A005-01, N-(1-Adamantylmethyl)-6-[4-[4-(3-ethoxyphenyl)-3-fluorobenzoyl]piperazin-1-yl]pyridazine-3-carboxamide]	

The remaining lines, values behind:

Compound	ASMS ratio (%) (n = 1)	ASMS ratio (%) (n = 2)	ASMS ratio (%) n = 1 [1] [%]	ASMS ratio (%) n = 2 [1] [%]	further results
CCOc1cncc(-c2cc(OC)c(CN3CCN(c4ccc(C(=O)NS(C)(=O)=O)nn4)CC3)c(OC)c2)c1 [B2I086-01, 6-[4-[[4-(5-Ethoxypyridin-3-yl)-2,6-dimethoxyphenyl]methyl]piperazin-1-yl]-N-methylsulfonylpyridazine-3-carboxamide]	0.0	0.0			
CCOc1cncc(-c2ccc(C(C)N3CCN(c4ccc(C(=O)NS(=O)(=O)CC56CC7CC(CC(C7)C5)C6)cc4)CC3)c(F)c2)c1 (centres unmarked) [B2A100-01, N-(1-Adamantylmethylsulfonyl)-4-[4-[1-[4-(5-ethoxypyridin-3-yl)-2-fluorophenyl]ethyl]piperazin-1-yl]benzamide]					ASMS ratio (%) n = 1 (AS-MS, mixture library, Bcl-2): 0.0%; ASMS ratio (%) n = 2 (AS-MS, mixture library, Bcl-2): 0.0%
CCOc1cncc(-c2cc(CN3CCN(c4ccc(C(=O)NS(=O)(=O)CCC(F)(F)F)cc4)CC3)cc(OC(F)(F)F)c2)c1 [B2N064-01, 4-[4-[[3-(5-Ethoxypyridin-3-yl)-5-(trifluoromethoxy)phenyl]methyl]piperazin-1-yl]-N-(3,3,3-trifluoropropylsulfonyl)benzamide]	0.0	0.0			
CCOc1cccc(-c2cc(CN3CCN(c4ccc(C(=O)NCC(F)(F)F)nn4)CC3)cc(OCC)c2)c1 [B1K081-01, 6-[4-[[3-Ethoxy-5-(3-ethoxyphenyl)phenyl]methyl]piperazin-1-yl]-N-(2,2,2-trifluoroethyl)pyridazine-3-carboxamide]			2.3	−0.4	
6-[4-[3-tert-Butyl-5-(3-ethoxyphenyl)benzoyl]piperazin-1-yl]-N-propylpyridazine-3-carboxamide [B1M060-01]			0.0	0.0	
CCOc1cccc(-c2ccc(C(=O)N3CCN(c4ccc(C(=O)N(CC)CC)cc4)CC3)cc2F)c1 [B4J027-01, 4-[4-[4-(3-Ethoxyphenyl)-3-fluorobenzoyl]piperazin-1-yl]-N,N-diethylbenzamide]					ASMS ratio (%) n = 1 [2]: −0.5%; ASMS ratio (%) n = 2 [2]: 0.2%
CCOc1cncc(-c2ccc(CN3CCN(c4ccc(C(=O)NS(=O)(=O)CC56CC7CC(CC(C7)C5)C6)nn4)CC3)cc2F)c1 [B2A078-01, N-(1-Adamantylmethylsulfonyl)-6-[4-[[4-(5-ethoxypyridin-3-yl)-3-fluorophenyl]methyl]piperazin-1-yl]pyridazine-3-carboxamide]					ASMS ratio (%) n = 1 (AS-MS, mixture library, Bcl-2): 15.2%; ASMS ratio (%) n = 2 (AS-MS, mixture library, Bcl-2): 9.3%
CCOc1cccc(-c2ccc(C(=O)N3CCN(c4ccc(C(=O)NS(=O)(=O)c5ccc(NCCSc6ccccc6)c([N+](=O)[O-])c5)nn4)CC3)cc2F)c1 [B2Q005-01, 6-[4-[4-(3-Ethoxyphenyl)-3-fluorobenzoyl]piperazin-1-yl]-N-[3-nitro-4-(2-phenylsulfanylethylamino)phenyl]sulfonylpyridazine-3-carboxamide]					ASMS ratio (%) n = 1 (AS-MS, mixture library, Bcl-2): 12.5%; ASMS ratio (%) n = 2 (AS-MS, mixture library, Bcl-2): 15.3%
CCOc1cncc(-c2ccc(CN3CCN(c4ccc(C(=O)NS(=O)(=O)C(C)(C)C)cc4)CC3)c(OC)c2)c1 [B2L054-01]	0.0	0.0			
CCOc1cccc(C#Cc2cncc(C(=O)N3CCN(c4ccc(C(=O)Nc5ccc(OC)cc5)cc4)CC3)c2)c1 [B1O031-01, 4-[4-[5-[2-(3-Ethoxyphenyl)ethynyl]pyridine-3-carbonyl]piperazin-1-yl]-N-(4-methoxyphenyl)benzamide]					ASMS ratio (%) n = 1 [2]: −1.3%; ASMS ratio (%) n = 2 [2]: −4.1%
CCOc1cccc(-c2cc(CN3CCN(c4ccc(C(=O)NS(C)(=O)=O)nn4)CC3)cc(C(F)(F)F)c2)c1 [B2I087-01, 6-[4-[[3-(3-Ethoxyphenyl)-5-(trifluoromethyl)phenyl]methyl]piperazin-1-yl]-N-methylsulfonylpyridazine-3-carboxamide]	1.3	−0.9			
CCOc1cncc(-c2ccc(CN3CCN(c4ccc(C(=O)NS(=O)(=O)c5ccc(NCCSc6ccccc6)c(C(F)(F)F)c5)cc4)CC3)cc2C)c1 [B2R048-01]	9.2	7.5			
CCOc1cccc(-c2ccc(CN3CCN(c4ccc(C(=O)NS(=O)(=O)C(C)(C)C)cc4)CC3)c(OC)c2)c1 [B2L053-01]	0.0	0.0			
CCOc1cncc(-c2ccccc2CN2CCN(c3ccc(C(=O)Nc4ccc(OC)cc4)cc3)CC2)c1 [B1O046-01, 4-[4-[[2-(5-Ethoxypyridin-3-yl)phenyl]methyl]piperazin-1-yl]-N-(4-methoxyphenyl)benzamide]					ASMS ratio (%) n = 1 [2]: 0.6%; ASMS ratio (%) n = 2 [2]: 1.3%
